Assay results: patent US6790951B1, “Expression system in microorganism and its use for expressing heterologous and homologous proteins” (priority 1995, dated 2004)
Ends that are not written are not given here.

Legend:
[1] = test system: Lactobacillus sake LTH673; experiment: Induction or maintenance of bacteriocin (sakacin P) production, inducing-peptide production and immunity in Lactobacillus sake LTH673 cultures; format: cell-based; settings: for induction of immunity to sakacin P / induction of production of the inducing peptide itself: added to Bac- Lactobacillus sake LTH673 cells; for induction of bacteriocin (sakacin P) production: added to Bac- Lactobacillus sake LTH673 cultures
Text: This bacteriocin was later shown to be sakacin P (ref. 8). Bacterial cultures obtained by inoculating MRS medium (Difco Laboratories, Detroit, Mich., USA; or Oxoid ltd. Basingstoke, Hampshire, England) with material from this glycerol-stock produced sakacin P (Bac^+ phenotype) and, accordingly, were immune to purified sakacin P.
(§1) The Bac^+ phenotype of cells in this bacterial culture was lost upon diluting a Bac^+ LTH673 culture more than ˜2000-fold in fresh MRS-medium. […] Loss of the Bac^+ phenotype upon dilution or plating could be prevented by adding supernatant of an overnight Bac^+ LTH673 culture at an end concentration of minimally 0.05% (v/v). […] Colonies obtained after plating cells from a Bac^− culture in the presence of supernatant from a Bac^+ culture all were Bac^+.
As indicated above Bac^− colonies of Lactobacillus sake LTH673 were obtained after plating cells from a Bac^+ culture. […] Glycerol stocks of such Bac^− cultures were made and fresh cultures obtained after inoculating MRS medium with an inoculum from such a glycerol stock again were Bac^−. In all cases tested, the only way to restore bacteriocin production was to add supernatant of a Bac^+ culture that thus, apparently, contains an inducing substance.
Lb. sake LTH673 (Bac^+) is immune to purified sakacin P and to several related purified bacteriocins. Immunity is caused by a specific protein that is produced concomitantly with the bacteriocin. Accordingly, we observed that the loss and induction of the Bac^+ phenotype was invariably accompanied by, respectively, the loss and induction of immunity to sakacin P. Another trait invariably linked to changes in the Bac phenotype was the inducing capacity itself: this capacity was only present in supernatants of Bac^+ cultures but not in the supernatants of Bac^− cultures.

[2] = test system: genes involved in sakacin P production (FIG. 1) in Lactobacillus sake LTH673; experiment: Northern blotting of transcripts of the sakacin P genes in Bac- LTH673 cultures after adding the peptide; format: cell-based; settings: purified or synthetic peptide
Text: 5. In bacteriocin deficient cultures of LTH673, transcription of the genes depicted in FIG. 1 could not be detected (by Northern blotting).
In cultures of Lactobacillus sake LTH673 with the Bac^− phenotype, transcription of the genes depicted in FIG. 1 could not be detected at any stage during growth (by Northern blotting).

[3] = Stability of the inducing component of culture medium to proteinase K and boiling; format: physicochemical
Text: as §1

[4] = test system: Lactobacillus plantarum C11; experiment: Induction of bacteriocin production / gene expression in Lactobacillus plantarum C11; format: cell-based
Experimental: Experiments similar to the ones described in examples 1 and 2 were conducted with the bacteriocin producing strain Lactobacillus plantarum C11. These experiments yielded results that were essentially similar to the results described in examples 1 and 2. The sequence of the amphiphilic inducing peptide for the Lactobacillus plantarum C11 regulatory system is: […](26 residues) (SEQ. ID. NO: 1).
Observations essentially similar to the ones described by examples 1,2, and 4 have been made in relation to bacteriocin production by Lactobacillus plantarum C11. This strain produces a large number of bacteriocins, corresponding immunity proteins, and the 26-residue inducing peptide described in example 3. The corresponding genes have been cloned and sequenced. […] Promoter elements in front of the transcription start-points resemble those found in front of the genes involved in sakacin P production, as indicated in FIG. 4.
A 26-residue peptide (SEQ ID NO:1) with the sequence given in example 3 was synthesized.

Sequence	induction of immunity to sakacin P [1]	induction of production of the inducing peptide itself [1]	induction of immunity to sakacin P ([1]; listed as purified peptide)	induction of production of the inducing peptide itself ([1]; listed as purified peptide)	induction of bacteriocin (sakacin P) production [1]	induction of bacteriocin (sakacin P) production ([1]; listed as purified peptide)	inducing effects of the synthetic peptide compared with Bac+ culture supernatants and the purified peptide ([1]; synthetic peptide, in Lactobacillus sake LTH673)	detection of transcripts of the genes of FIG. 1 [2]	time until transcripts could be detected after adding the peptide [2] [min]	inducing activity after boiling ([3]; boiling for 10 minutes)	inducing activity after proteinase K treatment ([3]; culture medium treated with proteinase K)	induction of gene expression (bacteriocin, immunity and inducing peptide genes) ([4]; Bac- cultures of Lactobacillus plantarum C11)	inducing effects of the synthetic peptide compared with Bac+ culture supernatants and the purified peptide ([4]; synthetic peptide, in Lactobacillus plantarum C11)
MAGNSSNFIHKIKQIFTHR [19-residue peptide, purified or chemically synthesized]	restored	restored	resulted in the induction	resulted in the induction	restored	resulted in the induction	same inducing effects	several transcripts could be detected	≤ 30	not after boiling	lost	–	–
KSSAYSLQMGATAIKQVKKLFKKWGW [26-residue inducing peptide]	–	–	–	–	–	–	–	–	–	–	–	gene expression can be induced	same inducing effects
